These results are taken from PubChem BioAssay (NCI).

Values joined by “and” are separate entries in the source; they are usually repeats but may differ in a detail not shown here. Equal entries are not always repeated.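 Results reflect a 48-hour exposure of cells in 96-well plates to compound at five concentrations. GI50: concentration for 50% inhibition of growth. TGI marks complete inhibition of growth.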 Bounds are passed on as bounds.

Test systems include MDA-MB-435; EKVX NSCLC; ACHN renal; M14 melanoma; KM12 colon; SF-539 CNS; RPMI-8226 leukemia; OVCAR-5 ovarian; MALME-3M melanoma; HCT-116 colon; A498 renal; LOX IMVI melanoma; IGROV1 ovarian; T-47D breast.
Assay in all cases: NCI-60 cell line screen, 48 h

Consider `CN(CC(=O)N1CC(CCl)c2ccc([N+](=O)[O-])cc21)CC(=O)N1CC(CCl)c2ccc([N+](=O)[O-])cc21` (configuration not stated), for which the TGI with MDA-MB-435, in the experiment on EKVX NSCLC, in the experiment with ACHN renal, in the experiment with M14 melanoma, in the experiment with KM12 colon and in the experiment on SF-539 CNS was over 100 µM throughout. The TGI in the experiment with RPMI-8226 leukemia, in the experiment with OVCAR-5 ovarian, with MALME-3M melanoma, in the experiment with HCT-116 colon, in the experiment with A498 renal and in the experiment with LOX IMVI melanoma was over 100 µM throughout. The same compound returned a TGI in the experiment with IGROV1 ovarian of over 100 µM.
Regarding `Cc1c2n(c(=O)[nH]c1=O)C1OC(CO)C(O2)C1N=[N+]=[N-]` (configuration not stated), the TGI with EKVX NSCLC, in the experiment on ACHN renal, in the experiment with KM12 colon, with SF-539 CNS, with RPMI-8226 leukemia and in the experiment with HCT-116 colon was over 100 µM each time. Further, the TGI with A498 renal, in the experiment with LOX IMVI melanoma and in the experiment on IGROV1 ovarian was over 100 µM in each case.
As for `COc1cc2c(c(OC)c1O)-c1ccc(SC)c(=O)cc1C(NC(C)=O)CC2` (configuration not stated), the TGI in the experiment on EKVX NSCLC, in the experiment on ACHN renal, with M14 melanoma, in the experiment on RPMI-8226 leukemia, with OVCAR-5 ovarian and in the experiment on MALME-3M melanoma was over 100 µM each time. The TGI in the experiment with HCT-116 colon was 0.252 µM; in the experiment with A498 renal, 30.9 µM; in the experiment on LOX IMVI melanoma it was over 100 µM; in the experiment with IGROV1 ovarian, over 100 µM.
Regarding `N/C(=N\N=C/c1ccc(O)c(O)c1O)NO`, the TGI is over 100 µM in the experiment on EKVX NSCLC; 72.5 µM in the experiment with KM12 colon; over 100 µM in the experiment with SF-539 CNS; over 100 µM in the experiment on RPMI-8226 leukemia; over 73.6 µM in the experiment with OVCAR-5 ovarian; over 100 µM with MALME-3M melanoma. In addition, the TGI in the experiment on HCT-116 colon was over 59.6 µM; with A498 renal, over 100 µM; in the experiment with LOX IMVI melanoma, 33.9 µM; with IGROV1 ovarian it was over 100 µM.
In the case of `Cc1ccc(-c2n[nH]c(Cc3nc(-c4ccc(C)cc4)n[nH]3)n2)cc1`, the TGI in the experiment on MDA-MB-435, in the experiment with EKVX NSCLC, in the experiment on ACHN renal, in the experiment with M14 melanoma, in the experiment on KM12 colon and in the experiment with SF-539 CNS was over 100 µM in each case. Moreover, the TGI in the experiment with RPMI-8226 leukemia, in the experiment on OVCAR-5 ovarian, in the experiment with HCT-116 colon, in the experiment on LOX IMVI melanoma and in the experiment with IGROV1 ovarian was over 100 µM each time.
With `C=C1C(=O)[C@@]23CC[C@H]4[C@@](C)(CCC[C@@]4(C)C(=O)OC)[C@@H]2CC[C@]1(O)C3`, the TGI in the experiment on EKVX NSCLC is 3.5 µM; in the experiment on KM12 colon, 3.6 µM and 5.81 µM; in the experiment on SF-539 CNS, 11.2 µM and 3.18 µM; in the experiment on RPMI-8226 leukemia it was 0.969 µM; in the experiment with OVCAR-5 ovarian, 11.8 µM and 3.54 µM; in the experiment on MALME-3M melanoma, 9.8 µM. Besides, the TGI was 2.21 µM and 2.17 µM with HCT-116 colon; 3.09 µM in the experiment on A498 renal; 2.64 µM and 2.22 µM with LOX IMVI melanoma; 3.07 µM and 3 µM in the experiment on IGROV1 ovarian. For the same compound, the GI50 is 1.97 µM in the experiment on KM12 colon; 3.53 µM in the experiment on SF-539 CNS; 3.95 µM with OVCAR-5 ovarian; 2.51 µM in the experiment with MALME-3M melanoma; 1.49 µM in the experiment on A498 renal; 1.34 µM in the experiment on LOX IMVI melanoma.
In the case of `Cc1ccc(S(=O)(=O)NC(=O)NC(CC(N)=O)C(=O)O)cc1` (configuration not stated), the TGI in the experiment on T-47D breast, in the experiment on ACHN renal, in the experiment on M14 melanoma, with KM12 colon, with SF-539 CNS and in the experiment on RPMI-8226 leukemia was over 100 µM in each case. Also, the TGI in the experiment with OVCAR-5 ovarian, in the experiment with MALME-3M melanoma, in the experiment with HCT-116 colon, in the experiment with LOX IMVI melanoma and in the experiment on IGROV1 ovarian was over 100 µM in each case.
Consider `Cc1cccc2oc3c(CC(=O)O)cccc3c(=O)c12`, for which the TGI in the experiment on MDA-MB-435, in the experiment on EKVX NSCLC, in the experiment on ACHN renal, with M14 melanoma, with KM12 colon and with SF-539 CNS was over 100 µM throughout. For the same compound, the TGI in the experiment with RPMI-8226 leukemia, in the experiment with MALME-3M melanoma, in the experiment with HCT-116 colon, with A498 renal, with LOX IMVI melanoma and with IGROV1 ovarian was over 100 µM throughout.
Turning to `S=c1nc2sc3c(c2c(Nc2ccc(Cl)cc2)[nH]1)CCCC3`, the TGI in the experiment on MDA-MB-435 is over 100 µM; in the experiment with EKVX NSCLC, over 100 µM; with ACHN renal, over 100 µM; in the experiment on KM12 colon it was over 100 µM; in the experiment on RPMI-8226 leukemia, 72.4 µM; in the experiment with OVCAR-5 ovarian it was over 100 µM. In addition, the TGI in the experiment with MALME-3M melanoma, in the experiment on HCT-116 colon, in the experiment on A498 renal, with LOX IMVI melanoma and in the experiment with IGROV1 ovarian was over 100 µM throughout.
For `S=C1NCCN1`, the TGI with EKVX NSCLC, with ACHN renal, with M14 melanoma, in the experiment on KM12 colon, in the experiment with SF-539 CNS and in the experiment with RPMI-8226 leukemia was over 100 µM each time. For the same compound, the TGI in the experiment on OVCAR-5 ovarian, with MALME-3M melanoma, with HCT-116 colon, in the experiment with LOX IMVI melanoma and in the experiment on IGROV1 ovarian was over 100 µM throughout.
With `C[n+]1c2ccccc2c(NCC(=O)O)c2ccccc21`, the TGI in the experiment on EKVX NSCLC, with ACHN renal, with M14 melanoma, in the experiment with KM12 colon, with SF-539 CNS and in the experiment on RPMI-8226 leukemia was over 100 µM each time. Also, the TGI in the experiment on OVCAR-5 ovarian, in the experiment with MALME-3M melanoma, in the experiment on HCT-116 colon, with A498 renal and in the experiment on IGROV1 ovarian was over 100 µM in each case.
As to `NC(CCCCCCCCCCP(=O)(O)O)C(=O)O` (configuration not stated), the TGI in the experiment with T-47D breast, with MDA-MB-435, with EKVX NSCLC, in the experiment on ACHN renal, in the experiment with M14 melanoma and with KM12 colon was over 100 µM in each case. For the same compound, the TGI with SF-539 CNS, in the experiment with RPMI-8226 leukemia, with OVCAR-5 ovarian, with HCT-116 colon, in the experiment with LOX IMVI melanoma and in the experiment on IGROV1 ovarian was over 100 µM each time.
